Data published in patent US5641779A, “Selective ligands of 5-HT1D -5-HT1B receptors derived from indolepiperazine which are useful medicaments” (Pierre Fabre Medicament, priority 1992, dated 1997).
Where a name gives a salt, the structure may show the parent alone.

Tests used:
5-HT1D = assay: Affinity for 5-HT1D receptors (3H-5-HT binding, sheep caudate nuclei membranes); conditions: Ratio of the IC50 values for the 5HT1A and 5HT1D receptors
Protocol: This study is carried out according to the technique described by Herrick-Davis and Titeler (J. Neurochem. 50, 1624-1631, 1988).
Preparation of the membranes:
Sheep brains are removed at the local abattoir and transported in ice. The caudate nuclei are removed, weighed and homogenized with a Polytron for 20 sec. (speed 6-7) in 20 volumes of Tris-HCl 50 mM, pH 7.7. The homogenate is centrifuged for 10 min at 48,000 g with an L5 50E centrifuge (Beckman).
The pellet, taken up in 20 volumes of Tris-HCl 50 mM, pH 7.7, is placed in a water bath at 37° C. for 10 min and then recentrifuged for 10 min at 48,000 g. The pellet then obtained is immediately frozen in fractions containing 0.5 g of tissue.
The pellet is defrosted and homogenized with a Dounce in 80 volumes of Tris-HCl, 50 mM pH 7.7 containing 4 mM CaCl2, 10μM of pargyline and 0.1% of ascorbic acid.
Binding is carried out at 25° C. by incubating for 30 min:
0.1 ml of buffer or 10 μM, as final concentration, of sumatriptan, in order to obtain the non-specific binding, or the product which forms part of this invention at various concentrations (between 10^-10 and 10^-6 M).
0.8 ml of membrane suspension
0.1 ml of ^3 H-5-HT (15 to 30 Ci/mM, New England Nuclear France)
The incubation is brought to an end by rapid filtration through GF/B filters and rinsing with 3 times 3 ml of ice-cold buffer, using a harvester manufactured by Brandel which makes it possible to filter 48 samples. The filters are introduced into vials containing 4 ml of emulsifier-safe liquid scintillant (Packard) and the radioactivity measured with a Tri-carb 4640 counter (Packard).
The IC50 (concentration which inhibits the specific affinity by 50%) is determined graphically.

5-HT1A = biological target: T1, 5-HT1A (Rattus norvegicus, UniProt P19327); assay: 5-HT1A receptor binding (Peroutka); conditions: rat frontal cortex (title of cited method); mean; read-out: IC50 5-HT1A mean
T1 construct: from tissue; host or cells: rat frontal cortex
T1 sequence (P19327 1-422): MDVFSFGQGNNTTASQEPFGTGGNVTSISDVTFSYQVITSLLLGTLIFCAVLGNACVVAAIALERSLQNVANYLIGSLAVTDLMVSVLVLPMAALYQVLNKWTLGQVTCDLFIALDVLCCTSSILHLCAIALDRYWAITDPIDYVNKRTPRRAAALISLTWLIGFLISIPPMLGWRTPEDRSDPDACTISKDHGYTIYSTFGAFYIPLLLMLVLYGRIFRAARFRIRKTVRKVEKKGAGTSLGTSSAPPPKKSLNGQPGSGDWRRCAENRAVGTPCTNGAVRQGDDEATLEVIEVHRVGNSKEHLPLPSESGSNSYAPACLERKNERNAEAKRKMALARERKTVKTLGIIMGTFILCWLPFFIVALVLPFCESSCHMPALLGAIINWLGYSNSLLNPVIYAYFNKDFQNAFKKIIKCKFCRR
Protocol: (§1) The IC50 values of the various products which form part of this invention for the other receptors were measured according to the techniques described in the following references:
(§2) Peroutka S. J. Pharmacological differentiation and characterization of 5-HT1A, 5-HT1B and 5-HT1C binding sites in rat frontal cortex. J. Neurochem., 45, 529-540, 1986.

5-HT1B = biological target: T2, 5-HT1B (Rattus norvegicus, UniProt P28564); assay: 5-HT1B receptor binding (Peroutka); conditions: rat frontal cortex (title of cited method); mean; read-out: IC50 5-HT1B mean
T2 construct: from tissue; host or cells: rat frontal cortex
T2 sequence (P28564 whole entry): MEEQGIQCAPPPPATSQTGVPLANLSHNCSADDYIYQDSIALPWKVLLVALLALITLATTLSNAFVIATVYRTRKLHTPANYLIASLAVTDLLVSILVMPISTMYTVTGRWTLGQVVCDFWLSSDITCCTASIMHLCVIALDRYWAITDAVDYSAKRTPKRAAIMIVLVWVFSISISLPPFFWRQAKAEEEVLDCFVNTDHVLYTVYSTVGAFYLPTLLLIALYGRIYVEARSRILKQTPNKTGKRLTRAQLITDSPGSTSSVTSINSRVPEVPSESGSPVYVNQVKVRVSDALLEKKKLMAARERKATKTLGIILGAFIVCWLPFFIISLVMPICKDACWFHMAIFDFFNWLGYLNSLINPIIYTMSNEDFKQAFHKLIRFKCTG
Protocol: as §1, §2

5-HT1C = biological target: T3, 5-HT1C (Sus scrofa, UniProt K7GSR7); assay: 5-HT1C receptor binding (Pazos et al.); set-up: species or system porcine; conditions: porcine choroid plexus (title of cited method); read-out: IC50 5-HT1C
T3 construct: serotonergic ligands to the porcine choroid plexus; from tissue; host or cells: porcine choroid plexus
T3 sequence (K7GSR7 1-457): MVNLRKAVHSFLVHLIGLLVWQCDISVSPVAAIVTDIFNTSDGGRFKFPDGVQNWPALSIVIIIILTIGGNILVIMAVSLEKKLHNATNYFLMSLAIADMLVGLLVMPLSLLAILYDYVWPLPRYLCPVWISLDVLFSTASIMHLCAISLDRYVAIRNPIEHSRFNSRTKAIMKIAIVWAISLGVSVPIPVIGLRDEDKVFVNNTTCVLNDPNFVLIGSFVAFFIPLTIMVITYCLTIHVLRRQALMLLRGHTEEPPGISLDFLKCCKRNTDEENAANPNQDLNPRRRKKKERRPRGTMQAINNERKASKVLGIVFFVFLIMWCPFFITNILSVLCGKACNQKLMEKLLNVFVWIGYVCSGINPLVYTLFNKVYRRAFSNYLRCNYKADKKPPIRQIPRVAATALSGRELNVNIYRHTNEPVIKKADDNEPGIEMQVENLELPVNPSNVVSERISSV
Protocol: as §1
Pazos A., Hoyer D. and Palacios J. M. The binding sites of serotonergic ligands to the porcine choroid plexus: characterization of a new type of serotonin recognition site. Eur. J. Pharmacol., 106, 539-546, 1985.

5-HT2 = biological target: T4, 5-HT2 (Rattus norvegicus, UniProt P14842); assay: 5-HT2 receptor binding (Leysen et al.); conditions: 3H-ketanserine (title of cited method)
T4 construct: from tissue
T4 sequence (P14842 whole entry): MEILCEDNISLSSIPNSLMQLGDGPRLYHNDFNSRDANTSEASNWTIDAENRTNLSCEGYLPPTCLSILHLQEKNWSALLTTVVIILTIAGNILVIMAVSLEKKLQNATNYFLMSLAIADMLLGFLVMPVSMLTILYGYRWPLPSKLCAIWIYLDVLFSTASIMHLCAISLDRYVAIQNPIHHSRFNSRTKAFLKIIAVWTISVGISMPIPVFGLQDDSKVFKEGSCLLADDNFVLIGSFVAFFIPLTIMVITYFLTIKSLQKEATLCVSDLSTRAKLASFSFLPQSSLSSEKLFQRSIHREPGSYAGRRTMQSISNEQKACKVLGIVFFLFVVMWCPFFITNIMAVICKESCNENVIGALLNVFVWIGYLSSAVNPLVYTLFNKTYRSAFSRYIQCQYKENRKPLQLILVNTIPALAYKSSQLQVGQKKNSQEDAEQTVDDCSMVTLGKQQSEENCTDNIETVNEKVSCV
Protocol: as §1
Leysen J. E., Niemegeers C. J. E., Van Nueten J. M. and Laduron P.M. ^3 H-ketanserine (R 41468), a selective ^3 H ligand for serotonin2 receptor binding sites. Mol. Pharmacol., 21, 301-330, 1982.

α2-Adrenergic receptor = biological target: T5, α2-Adrenergic receptor (Rattus norvegicus, UniProt P22909); assay: α2-Adrenergic receptor binding (Mallard et al.); conditions: rat brain (title of cited method); read-out: IC50 α2
T5 construct: in the rat brain; from tissue; host or cells: rat brain
T5 sequence (P22909 1-465): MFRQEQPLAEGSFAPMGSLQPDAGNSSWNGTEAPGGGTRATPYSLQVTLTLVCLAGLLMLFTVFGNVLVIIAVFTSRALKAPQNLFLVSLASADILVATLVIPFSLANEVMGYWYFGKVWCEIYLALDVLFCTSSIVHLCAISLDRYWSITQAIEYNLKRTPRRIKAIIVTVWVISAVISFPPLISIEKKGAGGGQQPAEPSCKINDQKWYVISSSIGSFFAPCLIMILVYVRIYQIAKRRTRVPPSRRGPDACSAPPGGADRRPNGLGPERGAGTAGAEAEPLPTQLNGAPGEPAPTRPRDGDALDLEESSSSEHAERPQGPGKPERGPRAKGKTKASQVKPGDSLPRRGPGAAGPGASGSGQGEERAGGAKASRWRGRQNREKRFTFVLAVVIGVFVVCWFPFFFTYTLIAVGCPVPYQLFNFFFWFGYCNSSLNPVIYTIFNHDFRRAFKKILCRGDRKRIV
Protocol: as §1
Mallard N. J., Tyacke R., Hudson A. L. and Nutt D. S. Comparative binding studies of ^3 -idazoxan and ^3 -RX821002 in the rat brain. Brit. J. Pharmacol. 102, 221P, 1991.

α1-Adrenergic receptor = α1-Adrenergic receptor binding (Leslie Morrow and Creese); conditions: rat brain (title of cited method)
Protocol: as §1
Leslie Morrow A. and Creese I. Characterization of α1-adrenergic receptor subtypes in rat brain: a reevaluation of ^3 H-WB4101 and ^3 H prazosin binding. Mol. Pharmacol. 29, 321-330, 1986.

D2-Dopaminergic receptor = biological target: T6, D2-Dopaminergic receptor (Canis lupus familiaris, UniProt Q9GJU1); assay: D2-Dopaminergic receptor binding (Nisnik et al.); conditions: 3H-YM-09159-2 (title of cited method); read-out: IC50 D2
T6 construct: from tissue
T6 sequence (Q9GJU1 whole entry): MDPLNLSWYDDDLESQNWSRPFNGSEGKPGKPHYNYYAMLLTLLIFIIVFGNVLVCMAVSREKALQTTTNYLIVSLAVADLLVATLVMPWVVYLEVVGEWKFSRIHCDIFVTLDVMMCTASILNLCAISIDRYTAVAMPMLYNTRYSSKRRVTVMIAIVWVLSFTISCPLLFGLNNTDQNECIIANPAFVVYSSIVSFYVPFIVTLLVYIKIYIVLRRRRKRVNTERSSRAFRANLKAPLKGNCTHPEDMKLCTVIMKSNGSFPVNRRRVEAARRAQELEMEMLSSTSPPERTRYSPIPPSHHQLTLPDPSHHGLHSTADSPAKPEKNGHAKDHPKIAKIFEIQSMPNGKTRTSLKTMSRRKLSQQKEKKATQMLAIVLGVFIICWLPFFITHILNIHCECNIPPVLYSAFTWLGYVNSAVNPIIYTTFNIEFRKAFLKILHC
Protocol: as §1
Nisnik H. B., Grigoriadis D. E., Pri-Bar I., Buckman O. and Seeman P. Dopamine D2 receptors selectively labeled by a benzamide neuroleptic: ^3 H-YM-09159-2 Naunyn-Schmiedeberg's Arch. Pharmacol. 329, 333-343, 1985.

**Q.** For `NCCc1c[nH]c2ccc(OC(C(=O)N3CCN(c4cccc5ccccc45)CC3)c3ccccc3)cc12` (stereo not drawn) [Example 10, 4-Naphthyl-1-[tryptamine-5-O-(α-phenylcarboxymethyl)]piperazide hydrochloride], which “Ratio 1A/1D” value (5-HT1D) is on record?
**A.** Its value is 0.7.

**Q.** And the IC50 (5-HT1A)?
**A.** The IC50 was 0.465 µM.

**Q.** What about the IC50 (5-HT1B) of the same compound?
**A.** Its IC50 is 0.335 µM.

**Q.** What about the IC50 (5-HT1C) of the same compound?
**A.** The IC50 was greater than 1 µM.

**Q.** What about the IC50 (5-HT2) of the same compound?
**A.** Its IC50 is greater than 1 µM.

**Q.** And the IC50 (α2-Adrenergic receptor)?
**A.** The IC50 was greater than 1 µM.

**Q.** And the IC50 (α1-Adrenergic receptor)?
**A.** The IC50 was greater than 1 µM.

**Q.** And the IC50 (D2-Dopaminergic receptor)?
**A.** The IC50 was greater than 1 µM.
